Experimental data taken from patent publication US7407947B2, “Amphoteric sterols and the use thereof” (Novosom AG, priority 2001, dated 2008).

Test: Isoelectric point of the sterol derivative
Assay type: physicochemical
Conditions: stated as very close to pH 6.5

For `CC(C)CCCC(C)C1CCC2C3CC=C4CC(OC(=O)CCC(=O)NC(Cc5cnc[nH]5)C(=O)O)CCC4(C)C3CCC12C` [Hist-Chol, Cholesteryl-L-histidyl Succinate], the isoelectric point was about 6.5.
